# Columns and labels:
# [1] = tested on: microglia (IBA1); test: NMDA injection model: microglial infiltration (IBA1 immunofluorescence); format: in vivo, C57BL/6J mice; details: intravitreal NMDA; eye drops 250 μM daily; n = 5
# Excerpt: (§1) Fluorescence intensity was quantified by using ImageJ software.
# [2] = tested on: retinal ganglion cells (RGCs); test: Ex vivo optic nerve cut (evONC) model: RGC viability, apoptosis, retinal cytoarchitecture; format: in vivo, C57BL/6J mice; details: evONC T24, JGRi1 50, 250, 500 μM, sJGRi1 500 μM, n = 4
# Procedure: (§2) Animals were then euthanized via beheading.
# (§3) Western blots were quantified by densitometry using ImageJ software.
# The enucleated eyes were fixed in 4% paraformaldehyde solution overnight at 4 °C. Then, they were incubated in a 30% sucrose-in-PBS solution overnight, and finally, they were embedded in an optimal cutting temperature (OCT, Sigma, St. Louis, MO, USA) compound. Eyes were cut at a thickness of 20 μm. For reliability, the sections containing the optic nerve were utilized, and in each eye, at least five discontinuous sections were analyzed. For histological examination, cryosections were stained in Mayer’s Hematoxylin Solution (Merck, Germany), rinsed in tap water, then counterstained using Eosin Y alcoholic solution (Merck, Germany). Sections were mounted on coverslips with Eukitt (Merck, Germany), and observed under a light-transmission microscope (Nikon) with 40X magnification.
# as §1
# [3] = tested on: JNK2; test: NMDA injection model: JNK2 immunofluorescence; format: in vivo, C57BL/6J mice; details: intravitreal NMDA; eye drops 250 μM daily; n = 4
# Excerpt: as §1
# [4] = tested on: retinal ganglion cells (RGCs); test: NMDA injection model: RGC viability, apoptosis, cytoarchitecture, CTB-488 transport; format: in vivo, C57BL/6J mice
# [5] = tested on: A2 amacrine cells and rod bipolar cells (PROX1-positive); test: evONC model: PROX1-positive cells in the INL; format: in vivo, C57BL/6J mice; details: evONC T24; JGRi1 50, 250, 500 μM, sJGRi1 500 μM; one drop daily for 6 days; n = 3
# Excerpt: as §2, §1
# [6] = molecular target: T1, JNK2-STX1A interaction (Mus musculus, UniProt Q9WTU6); test: evONC model: JNK2-STX1A co-localization (Pearson's analysis); format: in vivo, C57BL/6J mice; details: evONC T24; JGRi1 50, 250, 500 μM, sJGRi1 500 μM; one drop daily for 6 days; n = 5
# T1 construct: from tissue; host or cells: retinal cryosections of C57BL/6J mice
# Procedure: as §2, §1
# (§4) Co-localization between fluorescent signals in acquired images was expressed using Pearson’s score, which describes the correlation of the intensity distribution between two distinct fluorescent signals. The analysis was carried out using the “JACOP” plug-in available for the ImageJ software. At least 10 different fields per condition were utilized for the quantification.
# [7] = tested on: STX1A; details: evONC T24; JGRi1 50, 250, 500 μM, sJGRi1 500 μM; one drop daily for 6 days; n = 5
# Procedure: Mice were either left untreated or treated for 6 days with a single drop per day of JGRi1 dissolved into a balanced saline solution (BSS) buffer at different concentrations (50 μM, 250 μM, 500 μM). A total volume of 5 μL of JGRi1 solution was applied directly onto the cornea. Treated animals were kept immobilized and under observation for 1 minute to ensure proper peptide penetration within the eye. Animals were then euthanized via beheading. A scrambled version of the peptide (sJGRi1) at a concentration of 500 μM was included as a control. Subsequently, the optic nerve was cut, and the eyes were harvested according to our previously established protocol [25, 26]. The extracted eyes were kept in phosphate-buffered salt (PBS; Capricorn Scientifics, Germany) at 4 °C for 24 hours, then the retinas were dissected and processed accordingly.
# Retinal cryosections were permeabilized using 0.5% Tryton-X (Merck, Germany) in PBS (Capricorn Scientifics, Germany) solution for 5 minutes. Then, blocked (0.1 M glycine, 2% w/v bovine serum albumin, 2% v/v fetal calf serum, 0.1% v/v Tryton-X) for 1 hour to avoid non-specific protein interactions. The primary antibody was diluted in the same blocking solution and held overnight at 4 °C. […] Fluorescence intensity was quantified by using ImageJ software.
# [8] = tested on: SNARE complex; test: evONC model: SNARE complex assay (native PAGE); format: in vivo, C57BL/6J mice; details: evONC T24; JGRi1 50, 250, 500 μM, sJGRi1 500 μM; one drop daily for 6 days; n = 6
# Procedure: as §2
# The modulation SNARE complex assembly by JGRi1 was evaluated via native PAGE. Briefly, samples were loaded using a non-denaturizing loading buffer (0.5 M Tris-HCl, pH 6.8, 15% v/v glycerol, and 1% v/v bromophenol blue). Samples were then left non-boiled to preserve protein-protein interaction, separated onto polyacrylamide gels, and then blotted onto nitrocellulose membranes. The immunoreactive bands were identified by using an antibody against STX1A, which is a core component of SNARE complexes. Bands starting from approximately 66 kDa were quantified as an indicator of the SNARE complex assembly upon treatment. β-tubulin was used as the loading control for quantification.
# [9] = tested on: JNK2; test: evONC model: JNK2 expression (immunofluorescence, immunoblot); format: in vivo, C57BL/6J mice; details: evONC T24; 500 μM eye drops (JGRi1 or sJGRi1), one drop daily for 6 days; n = 5
# Excerpt: as §2, §3, §1
# [10] = tested on: L-glutamate; test: NMDA injection model: retinal and synaptic glutamate immunoreactivity; format: in vivo, C57BL/6J mice; details: intravitreal NMDA; eye drops 250 μM daily from one day prior to NMDA through follow-up; n = 3
# Procedure: as §1, §4
sequence,measurement,setting,value
"RISEQLSNIEEGQE [sJGRi1, control]",IBA1 immunoreactivity (microglial infiltration),[1],no reduction was seen upon treatment with sJGRi1
same,"RBPMS-positive cells in the GCL (immunofluorescence), RGC viability",[2]; one drop daily for 6 days before evONC,failed to rescue RGC viability upon evONC
same,"RBPMS expression (immunoblot, densitometry vs β-TUB)",[2]; one drop daily for 6 days,did not produce any protective effect on RGC viability in comparison to the active peptide
same,JNK2 immunoreactivity (immunofluorescence),[3],did not prevent the NMDA-induced increase in JNK2 expression in the inner retina
same,"RBPMS-positive cells (immunofluorescence), RGC viability","[4]; intravitreal NMDA 250 μM, 2 μL, eye drops 250 μM, 4 µL daily, from 24 hours prior to NMDA through the 4-week study period, n = 4",had no effect on either RGC viability or apoptosis
same,retinal cytoarchitecture (hematoxylin/Eosin staining),"[4]; intravitreal NMDA, eye drops 250 μM daily from one day prior to NMDA through follow-up, n = 3",failed to do so
same,"c-CASP3 immunoreactivity / c-CASP3-positive cells, apoptosis","[4]; intravitreal NMDA, eye drops 250 μM daily from one day prior to NMDA through follow-up, n = 4",had no effect on either RGC viability or apoptosis
same,uptake and transport of the neural tracer CTB-488 in RGCs (mean fluorescence intensity),"[4]; intravitreal NMDA, eye drops 250 μM daily, CTB-488 1 µL intravitreal before sacrifice, n = 5",diminished CTB uptake and transport in RGCs
same,number of PROX1-positive cells in the INL,[5],did not produce any protective effect on PROX1-positive cell number
same,"JNK2-STX1A co-localization (co-immunofluorescence, Pearson's analysis)",[6],produced an even more marked co-localization between JNK2 and STX1A
same,STX1A level (immunofluorescence),[7],does not have any effect on JNK2 nor STX1A expression at T24
same,"SNARE complex formation (STX1A signal from about 66 kDa, non-boiled samples, vs β-TUB)",[8],did not produce any effect on SNARE complex formation
same,JNK2 immunoreactivity (immunofluorescence),[9],does not have any effect on JNK2 nor STX1A expression at T24
same,L-glutamate immunofluorescence in retinal tissue,[10],had no effect
